Measured values as given in patent publication US5104895A, “Platinum(II) complexes, their preparation and use as anti-tumor agents” (Boehringer Mannheim Italia S.p.A., priority 1988, dated 1992).

Assays:
tumours in patients = conditions: human, in vivo; cited from earlier work
[1] = cited from earlier work
murine L1210 leukaemia = assay: in vivo murine L1210 leukaemia
Excerpt: (§1) "In vivo" experiments including: a murine leukaemia and murine L1210 leukaemia / cisplatin resistant (i.p. drug administration day 1 after i.p. injection of 10^6 tumour cells day 0); b) advanced M 5076 ovarian carcinoma in female mice (i.m. injection of 5.10^5 cell day 0, drug administration q7d×3) are based on classical models that allow a preliminary evaluation of efficacy and toxicity of the novel agent in comparison with a well-stated reference drug. The evaluated parameters are toxic death, median survival time (T/C %) and long term survivals (60 days).

L1210 resistant line = assay: in vivo murine L1210 leukaemia / cisplatin resistant
Excerpt: as §1

M5076 ovarian carcinoma = assay: advanced M 5076 ovarian carcinoma in female mice; assay type: in vivo
Excerpt: as §1

cervix epithelioma = assay: MTT assay, cervix epithelioid carcinoma; assay type: cell-based, human; conditions: in vitro
Excerpt: The "in vitro" testing procedure has been based on the "MTT assay on human tumor cell lines" (T. Mosmann, J Immunol. Meth., 65, 55, 1983). According to N.C.I screening program for new anticancer drugs, the evaluation of the anti-tumour activity has been performed against groups of cell lines each representing a major category of human malignancy. Human cell (for ex. cervix epithelioid carcinoma, melanoma, fibrosarcoma and vulvar leiomyosarcoma cultures have been adapted to grow in complete RPMI 1640 medium; the compounds were added to 24 hours cultures and incubated for 72 and 160 hours.

[2] = cisplatin at 7 and 10 mg/kg, i.p. day 1

## N.N.O=C([O-])C1(C(=O)[O-])CCC1.[Pt+2] [carboplatin]
Tumours in patients
  activity against lung tumors (non-small cell), osteogenic sarcoma, Hodgkins lymphoma, melanoma and mammary tumors: a certain, even if limited, activity
[1]; human, in vivo
  nephrotoxicity compared with cis-platin: less nephrotoxic than cis-platin

## N.N.[Cl][Pt][Cl] [cisplatin, cis-diammino-dichloro-platinum, reference compound]
Murine L1210 leukaemia; [2]
  long term survivals (60 days): 1/10
  median survival time (T/C %): 162%
L1210 resistant line
  median survival time (T/C %): 115%
M5076 ovarian carcinoma; equieffective dose levels
  body weight change: marked body weight decrease
Tumours in patients
  activity against head and neck squamous cell carcinoma and further listed tumors: a certain activity
  activity against lung tumors (non-small cell), osteogenic sarcoma, Hodgkins lymphoma, melanoma and mammary tumors: a certain, even if limited, activity
  antitumour activity in patients: particularly effective in the treatment of genito-urinary tumours, of neck and head tumours
[1]; following cisplatin use
  side-effects: important gastrointestinal and renal side-effects, haematologic and neurologic complications (ototoxicity)

## NCCN.O=C([O-])C(CCOCCOCCO)C(=O)[O-].[Pt+2] [reference compound, cis(1,2-diaminoethane)-(8-hydroxy 3,6-dioxaoctane-1-yl-malonate) platinum (II), reference compound]
Murine L1210 leukaemia; at the higher dose level
  toxicity: heavily toxic

## (2R, 3R, 11R, 12R)-1,4-7,10,13,16-hexaoxacyclooctadecane-2,3,11,12-tetracarboxylate-bis- [compound B, (2R, 3R, 11R, 12R)-1,4-7,10,13,16-hexaoxacyclooctadecane-2,3,11,12-tetracarboxylate-bis-[cis(trans-d,l,-1,2)diamino-cyclohexane)-platinum(II)]]
Murine L1210 leukaemia; 20 mg/kg dose level, i.p. day 1
  median survival time (T/C %): 170%
Murine L1210 leukaemia; 20 mg/kg dose level, 60 days
  long term survivor values: 2
Murine L1210 leukaemia; 120 mg/kg
  median survival time (T/C %): 200%
  toxic deaths: 2/10
Murine L1210 leukaemia; 120 mg/kg, 60 days
  long term survivors: 2/10
Murine L1210 leukaemia; i.p.
  DL100: over 200 mg/kg
L1210 resistant line
  cross resistance with cisplatin: Lack of cross resistance with cisplatin
  median survival time (T/C %): over 160%
M5076 ovarian carcinoma; drug administration q7d×3
  tumour growth inhibition potency: comparable with that of cisplatin
M5076 ovarian carcinoma; mouse, in vivo
  body weight change: normal body weight increase

## cis[(1,1-diaminomethyl-cyclohexane)-3,3-(1,5,8,11,14,17-hexaoxacyclononadecane)cyclobutane]-1,1-dicarboxylate [compound D]
Cervix epithelioma
  antitumour activity compared with cisplatin: more active than cisplatin of about a log. order
L1210 resistant line
  cross resistance with cisplatin: Lack of cross resistance with cisplatin
  median survival time (T/C %): over 160%
